Reference: the METLIN SMRT retention time set (Domingo-Almenara et al. 2019)

Assay: gradient 5% acetonitrile 3 min, to 50% in 2 min, to 85% in 15 min, held 3 min, 100 µL/min
Conditions: column: Zorbax Extend-C18 2.1 x 50 mm; eluents: water / acetonitrile, 0.1% formic acid
Outline: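 Mixtures of ~100 pure standards were chromatographed on a Zorbax Extend-C18 column (2.1 × 50 mm, 1.8 μm) at 100 μL/min using water and acetonitrile, each with 0.1% formic acid. Detection used a quadrupole time-of-flight mass spectrometer in positive and negative ionization mode, and data collection spanned 3 months. Retention time was obtained from adduct peaks picked computationally and each checked manually.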

SMILES | RP-LC retention time [s]
COc1ccc(C2Cn3nnc(-c4nc(-c5ccc(C)cc5)no4)c3CO2)cc1 (centres undefined) | 1180
COCc1ncc(C)n1CC1CCN(Cc2sccc2C)CC1 | 534
CCOc1ccc(S(=O)(=O)N2C[C@@H]3C[C@H](NC(=O)c4ccccc4)[C@H]2C3)cc1 | 900
Cc1cc2nc(Nc3ncc4c(n3)CC(c3ccccc3)CC4=O)nc(C)c2cc1C (centres undefined) | 793
Cc1ccc(F)c(NC(=O)c2nc3nc(C)cc(C(F)F)n3n2)c1 | 846
Cc1oc(C2CCN(S(=O)(=O)c3ccc(C(F)(F)F)cc3)CC2)nc1C(=O)N(C)C | 900
CC1CCc2nn(CC(=O)Nc3cc(F)ccc3F)cc2C1 (centres undefined) | 983
CN(C)C(=O)CCc1ccc2c(c1)CN(C(=O)C1COc3ccccc3O1)CCO2 (centres undefined) | 790
Cc1ccc(CNC(=O)c2cccn2Cc2noc(C)n2)cc1 | 828
O=C(Nc1cnc(N2CCCCCC2)nc1)c1cnccn1 | 771
COc1ccc(-c2cnc(SCC(=O)Nc3cc(C)on3)n2Cc2ccco2)cc1 | 705
COc1ccc2c(c1)C1(CCN(C(=O)CC(C)(C)C)C1)C(=O)N2 (centres undefined) | 725
CCCCCNC(=O)c1cn(-c2ccc(NC(C)=O)cn2)cn1 | 690
O=C(NCc1cccnc1)C1CCN(Cc2cc3ccccc3n2Cc2cccc(Cl)c2)CC1 | 750
CC1CN(C(=O)CSc2cn(CC(=O)N3CCCCCC3)c3ccccc23)CC(C)O1 (centres undefined) | 897
COc1cccc(CNC(=O)Cn2c(N(C)Cc3ccccc3)nc(C)cc2=O)c1OC | 660
CCN(CC)CCCC(C)Nc1ccnc(/C=C/c2ccc(Cl)cc2)c1 (centres undefined) | 602
CCOCC(=O)N1CCC(N2CC(OCC3CC3)C23CCCCC3)CC1 (centres undefined) | 644
Cn1nccc1C(=O)N1CCCC1c1nc(-c2cccc(C(F)(F)F)c2)no1 (centres undefined) | 940
Cc1ccc(S(=O)(=O)N2CCC3(CC2)NCCN=C3NCc2ccccc2C)c(C)c1 | 788
CCn1c(=O)sc2cc(S(=O)(=O)N3CCC(C(=O)Nc4cccc(F)c4)CC3)ccc21 | 941
CN1CCN(CCNC(=O)c2ccc3nc(-c4ccc(Cl)cc4)cn3c2)CC1 | 579
Cc1ccsc1C(=O)Nc1cnc(-c2cccc(Cl)c2)nc1 | 1130
COc1ccc2c(c1)c(CN1CCC(C(=O)NCCC3=CCCCC3)CC1)cn2C | 730
Cc1nn(CCCC(=O)NCc2ccc3c(c2)OCO3)c(=O)c2nn(-c3ccccc3)c(C)c12 | 704

SMILES | RP-LC retention time [s]
CN(C)S(=O)(=O)c1ccc2c(c1)N(CC(=O)NCCCN1CCCC1)C(=O)C1CCCCN21 (centres undefined) | 614
CCc1cccc(NC(=O)C2(C)Oc3cccnc3N(C(C)C)C2=O)c1 (centres undefined) | 1120
COc1ccc(NC(=O)C2CCc3nc(N4CCCC4)ncc3C2)c(C)c1 (centres undefined) | 698
CCn1nccc1C(=O)N1C[C@@H](CO)[C@H](NC(C)=O)C1 | 514
O=C(Cn1ccnc1-c1ccnc(N2CCCC2)c1)NCc1ccc(Cl)cc1 | 601
COc1ncccc1CNC(=O)c1ccc(C)nc1 | 562
Cc1noc([C@@H]2CN(Cc3cccc(Cl)c3)C[C@H]2CO)n1 | 603
CC1(C)COc2ccc(NC(=O)NCc3cccc4ccccc34)cc2NC1=O | 602
CCOCCCNS(=O)(=O)c1cc(-c2ccno2)cs1 | 796
CCC(C)NC(=O)N1CCc2c(c(-c3nc(Cc4ccccc4)no3)nn2C)C1 (centres undefined) | 870
COc1ccc(C(=O)N2C[C@@H](Oc3cccnc3)C[C@H]2C(=O)NC2CC2)cn1 | 562
CN(C)S(=O)(=O)c1ccc(C(=O)Nc2nc(-c3coc4ccccc34)cs2)cc1 | 1030
CCCCN(C)S(=O)(=O)c1cc(-c2nnc(C3CCCC3)o2)co1 | 1060
CC1(C)C(=O)N(CC(=O)Nc2ccccc2Cl)c2ccccc21 | 912
CCNC(=O)c1sc(Nc2cccc(C)n2)nc1C | 657
CC(C)NC(=O)c1ccc2cnn(C)c2c1 | 667
CC1(C(=O)NCc2ccc3c(c2)OCO3)CCN(C(=O)c2ccccc2C(F)(F)F)CC1 | 822
O=C(NC1CCCC1)c1ccc2c(c1)nc1n2CCCCC1 | 600
O=C(c1ccc(F)c(Cl)c1)N1CCCC1c1nc(-c2ccccc2)no1 (centres undefined) | 1040
CCc1nc2cc(N3CCC(C(=O)NC(C)c4ccc(OC)cc4)CC3)cnc2nc1CC (centres undefined) | 868
Cc1noc(-c2cccn2Cc2cccc(F)c2)n1 | 962
CCc1nc2cc(N3CCC(C(=O)Nc4ccc(OC)c(OC)c4)CC3)cnc2nc1CC | 766
CNC(=O)c1noc([C@@H]2CC(F)(F)CN2C(=O)CCOC)n1 | 607
Cc1ccc(S(=O)(=O)N(C)CC2CCOCC2)cc1F | 850

The remaining lines, values ahead:

RP-LC retention time [s] | SMILES
577 | Cc1ccsc1C(=O)N1CCC2(CC1)CC(N1CCOCC1)CCO2 (centres undefined)
596 | CN(C)[C@@H]1CN(C(=O)Cn2c(=O)oc3cc(Cl)ccc32)C[C@H]1CO
1000 | O=C(CSc1ccccc1)N1CCc2nc(-c3ccc(F)cc3)ncc2C1
921 | COc1ccc(C(=O)NCCc2sc(-c3cccc(F)c3)nc2C)c(OC)c1
763 | Cc1ccc(Nc2c(-c3c(F)cccc3Cl)nc3cccc(C)n23)cc1
956 | CCCC(=O)Nc1nc(-c2ccc(OC)cc2)c(C)s1
715 | O=C(CC1CCN(C(=O)c2ccc3oc(C4CC4)nc3c2)CC1)NC1CCCC1
648 | COCCNC(=O)C1c2ccccc2CC(=O)N1C(C)C (centres undefined)
582 | COc1ccc2ncc(C(=O)c3ccc(C)cc3)c(N3CCN(C)CC3)c2c1
1030 | COc1ccc(-c2noc(CC3CCN(C(=O)C4(c5ccc(OC)cc5)CC4)CC3)n2)cc1
808 | Cc1ccc(C(=O)N2CCN(c3cc(-c4cccs4)[nH]n3)CC2)cc1C
714 | CCn1cc(C(=O)N2C[C@@H](COCC3CC3)[C@H](c3nc(C)no3)C2)cn1
729 | CCOC(=O)c1[nH]c(C)c(C(=O)N2CCC(CC(=O)N(C)Cc3ccco3)CC2)c1C
834 | O=C(Cc1ccc(Cl)cc1)Nc1ccc(N2CCN(C3CCCC3)C2=O)nc1
794 | Cn1c(=O)c(N2CCC(C(=O)NCCc3ccco3)CC2)nc2ccccc21
725 | CN(Cc1ccccc1)C(=O)Cn1cnc2nc3c(cc2c1=O)CCCC3
679 | Cc1nn(C2CCS(=O)(=O)C2)c(C)c1N1CCN(S(=O)(=O)c2cccnc2)CC1 (centres undefined)
942 | CCc1cc(=O)n(CC(=O)Nc2ccc(C)cc2Cl)c(N2CCOCC2)n1
918 | CC1CN(CC(=O)N2CCN(c3ncccn3)CC2)c2ccccc2S1 (centres undefined)
659 | O=C(CCn1cnc2cc(-c3noc(C4CC(=O)N(c5ccccc5)C4)n3)ccc21)N1CCCC1 (centres undefined)

RP-LC retention time [s] | SMILES
648 | O=c1cc(-c2cc(O)c(O)c([C@@H]3O[C@H](CO)[C@@H](O)[C@H](O)[C@H]3O)c2)oc2cc(O[C@@H]3O[C@H](CO)[C@@H](O)[C@H](O)[C@H]3O)cc(O)c12
803 | CC(=O)Nc1ccc(CC(=O)NC(C(=O)N2CCCc3ccccc32)c2ccccc2)cc1 (centres undefined)
1020 | Cc1ccc2c(c1)N(Cc1nc(-c3ccc4c(c3)OCO4)no1)C(=O)CO2
1280 | O=C1/C(=C/c2ccsc2)CC/C1=C\c1cccs1
819 | CCC1CCCCN1C(=O)CSc1n[nH]c(-c2ccccc2)n1 (centres undefined)
1320 | CCOc1ccc(-c2ccnc3c(C(=O)Nc4cc(C)cc(C)c4)cnn23)cc1
1160 | COc1ccc(OC)c(NC(=O)c2cc(C)n3nc(-c4ccco4)cc3n2)c1
716 | O=C(Cn1nc2n(c1=O)CCCC2)Nc1ccc(C(F)(F)F)cc1
726 | Cc1noc([C@@H]2CC(F)(F)CN2C(=O)c2cc(C3CC3)[nH]n2)n1
828 | CCOC(=O)c1ccc(NC(=O)CSc2cc(N3CCCC3)ncn2)cc1
757 | CN(CCc1noc(-c2ccc(C(=O)N3CCOCC3)cc2)n1)C(=O)Cc1ccc(Cl)cc1
766 | CCOc1ccc(NC(=O)c2oc3ccc(C)cc3c2C)c2cccnc12
932 | CN1c2cc(C(=O)NCc3ccc(OC(F)(F)F)cc3)ccc2C(=O)N2CCCCC21 (centres undefined)
598 | O=C(c1cc(=O)[nH]c2ccccc12)N1CCCC1
900 | COc1ccc(C2SCCN2S(=O)(=O)c2ccc(C)c([N+](=O)[O-])c2)cc1OC (centres undefined)
684 | CN(C)CCCNC(=O)c1cn(C)nc1S(=O)(=O)N1CCN(c2ccc(Cl)cc2)CC1
811 | O=C(Cc1ccccc1Br)NC1CCCN(c2cc(-c3ccccc3)[nH]n2)C1 (centres undefined)
673 | Cc1nc(-c2noc(-c3ccncc3)n2)cn1CC(=O)N1CCN(c2ccccc2)CC1
654 | Cc1ccc(Cn2cc(-c3ccncc3)cc2C(=O)NCC2CCCO2)cc1 (centres undefined)
902 | Cc1cc2c(c(=O)n(-c3ccccc3)c(=O)n2CC(=O)Nc2ccc(F)c(Cl)c2)n1C
